The results in this text go back to patent publication US20140249105A1, “NOVEL CERAMIDE ANALOGUES, PROCESSES FOR PREPARING SAME AND USES THEREOF” (Diverchim, priority 2011, published 2014).

Data set [1] concerns B16 melanocytes. Nature of the data set: Viability of the cells, test of reduction of MTT. The class given is cell-based. Conditions: 72 h. The protocol:
(§1) Melanocytes were seeded on a 96-well plate and cultured for 24 h (37° C., 5% CO2, DMEM 1 g/L glucose without phenol red supplemented with glucose 3 g/L, L-glutamine 2 mM, penicillin 50 U/mL, streptomycin 50 μg/mL, fetal calf serum (FCS) 10%). […] Each experimental condition was carried out with n=3, apart from the controls carried out with n=6. The cells were then incubated for 72 h. Wells without cells received in parallel the same quantities of medium, supplemented or not with NDP-MSH and with or without the test compounds or the reference in order to quantify the background noise associated with the presence of the compounds.
At the end of the treatment, the cells were incubated in the presence of MTT (3-(4,5-dimethylthiazol-2-yl)-2,5-diphenyl tetrazolium bromide), the conversion of which to blue crystals of formazan is proportional to the activity of succinate dehydrogenase (mitochondrial enzyme). After disruption of the cells, the formazan was dissolved in DMSO medium and the optical density (OD), representative of the number of live cells and of their metabolic reactivity, was measured with a microplate reader at 540 nm (VERSAmax, Molecular Devices).

For data set [2], the system named is B16 melanocytes. Nature of the data set: Screening of anti-melanogenesis activity: melanin assay in B16 melanocytes stimulated with NDP-MSH. The class given is cell-based. The following applies: 72 h. How it is done:
This was carried out for compounds in solution in DMSO. The synthesis of melanin was measured in a model of B16 melanocytes stimulated with a stable derivative of α-MSH (natural hormone that stimulates melanogenesis: Melanocyte Stimulating Hormone): NDP-MSH ([Nle^4, DPhe7]-α-MSH).
as §1
At the end of 72 hours of incubation, the total melanin (intra- and extracellular) was quantified by measuring the absorbance of each sample at 405 nm (direct reading of the culture plates) against a standard range of melanin (melanin concentrations tested from 0.78 to 100 μg/mL). The background noise, measured in the wells without cells, was subtracted from the values measured so that only the effect connected with the production of melanin is taken into account, without including any interference connected with the presence of the compounds. The results were expressed in percentage of melanin relative to the control as well as in percentage inhibition.

On to `O=C(NC1CC1NC(=O)C(F)=CCCCCCOC1CCCCO1)C(F)=CCCCCCOC1CCCCO1` (stereo not shown) [c111], for which the “Viability (MTT) % stimulated control” value with B16 melanocytes [1] (30 μM) turned out to be 98 % stimulated control; in the data set with B16 melanocytes [1] (100 μM), 57 % stimulated control. Moreover, the “Normalized data inhibition (%)” value was 25% in the data set on B16 melanocytes [2] (30 μM) and 108% with B16 melanocytes [2] (100 μM).
In the same order, the values of `O=C(N[C@@H]1CC[C@H](NC(=O)/C(F)=C\CCCCCOC2CCCCO2)C1)/C(F)=C\CCCCCOC1CCCCO1` (stereo partly shown) [c106] are 73 % stimulated control, 36 % stimulated control, 114% and 119%.
In the same order, the values of `O=C(NC1CCCC1NC(=O)C(F)=CCCCCCCCOC1CCCCO1)C(F)=CCCCCCCCOC1CCCCO1` (mixture of isomers) [c66] are 96 % stimulated control, 93 % stimulated control, 119% and 118%.
Taken in the same sequence, the figures for `O=C(NC1CCCC1NC(=O)C(F)=CCCCCCCCCOC1CCCCO1)C(F)=CCCCCCCCCOC1CCCCO1` (mixture of isomers) [c71] were 116 % stimulated control, 104 % stimulated control, 93% and 109%.
With `O=C(/C=C/CCCCCCCCO)N[C@H]1CCC[C@H]1NC(=O)/C=C/CCCCCCCCO` [c15], the “Viability (MTT) % stimulated control” value in the data set on B16 melanocytes [1] (30 μM) worked out at 76 % stimulated control; with B16 melanocytes [1] (100 μM), 74 % stimulated control. Besides, the “Normalized data inhibition (%)” value came out at 2% with B16 melanocytes [2] (30 μM) and 73% with B16 melanocytes [2] (100 μM).
As for `O=C(/C=C/CCCCCCCCCCCOC1CCCCO1)N[C@@H]1CC[C@H](NC(=O)/C=C/CCCCCCCCCCCOC2CCCCO2)C1` (stereo partly shown) [c30], the “Viability (MTT) % stimulated control” value with B16 melanocytes [1] (10 μM) came to 77 % stimulated control; in the data set on B16 melanocytes [1] (30 μM), 76 % stimulated control. In addition, the inhibition (in general, the share of the control response that was lost under treatment) at 10 µM in the data set on B16 melanocytes [2] (Melanocyte, 10 μM, read-out: Normalized data inhibition (%)) amounted to 42%. Further, the inhibition at 30 µM with B16 melanocytes [2] (Melanocyte, 30 μM, read-out: Normalized data inhibition (%)) was determined as 71%.
For the molecule `O=C(N[C@H]1CCC[C@H]1NC(=O)/C(F)=C\CCCCCCCCOC1CCCCO1)/C(F)=C\CCCCCCCCOC1CCCCO1` (stereo partly shown) [c72], the “Viability (MTT) % stimulated control” value in the data set on B16 melanocytes [1] (30 μM) came out at 102 % stimulated control; with B16 melanocytes [1] (100 μM), 86 % stimulated control. For the same molecule, the entries for the “Normalized data inhibition (%)” value in the data set with B16 melanocytes [2] (30 μM) and in the data set on B16 melanocytes [2] (100 μM) were 87% and 112%, respectively.
In the same order, the values of `O=C(NC1CCC(NC(=O)C(F)=CCCCCCO)C1)C(F)=CCCCCCO` (stereo not shown) [c116] are 88 % stimulated control, 91 % stimulated control, 6% and 87%.
On to `O=C(O)C(F)=CCCCCCCCCCCCCCCCO` [Ref 2, 18-Hydroxy-octadec-2-en-2-fluoro-oic acid, reference compound], for which the “Viability (MTT) % stimulated control” value came to 83 % stimulated control in the data set on B16 melanocytes [1] (30 μM) and 72 % stimulated control in the data set on B16 melanocytes [1] (100 μM). The “Normalized data inhibition (%)” value was found to be 0% in the data set with B16 melanocytes [2] (30 μM) and 79% in the data set on B16 melanocytes [2] (100 μM).
Taken in the same sequence, the figures for `O=C(NC1CCCC1NC(=O)C(F)=CCCCCCOC1CCCCO1)C(F)=CCCCCCOC1CCCCO1` (stereo not shown) [c107] were 95 % stimulated control, 26 % stimulated control, 66% and 120%.
Regarding `O=C(NC1CC1NC(=O)C(F)=CCCCCCOC1CCCCO1)C(F)=CCCCCCOC1CCCCO1` (mixture of isomers) [c108], the “Viability (MTT) % stimulated control” value with B16 melanocytes [1] (30 μM) amounted to 75 % stimulated control; with B16 melanocytes [1] (100 μM), 80 % stimulated control. For the same molecule, the “Normalized data inhibition (%)” value with B16 melanocytes [2] (30 μM) is 73%; in the data set with B16 melanocytes [2] (100 μM), 105%.
Consider `O=C(NC1CC1NC(=O)C(F)=CCCCCCCCCO)C(F)=CCCCCCCCCO` (mixture of isomers) [c37], for which the “Viability (MTT) % stimulated control” value in the data set on B16 melanocytes [1] (30 μM) amounted to 77 % stimulated control; with B16 melanocytes [1] (100 μM) it was 83 % stimulated control. Further, the figures for the “Normalized data inhibition (%)” value in the data set with B16 melanocytes [2] (30 μM) and with B16 melanocytes [2] (100 μM) were 0% and 92%, respectively.
Regarding `O=C(NC1CCC(NC(=O)C(F)=CCCCCCCCCCCCO)C1)C(F)=CCCCCCCCCCCCO` (stereo not shown) [c60], the “Viability (MTT) % stimulated control” value amounted to 105 % stimulated control with B16 melanocytes [1] (30 μM) and 101 % stimulated control in the data set on B16 melanocytes [1] (100 μM). In addition, the “Normalized data inhibition (%)” value in the data set with B16 melanocytes [2] (30 μM) came to 83%; in the data set with B16 melanocytes [2] (100 μM), 97%.
With `O=C(NC1CCC(NC(=O)C(F)=CCCCCCCCCOC2CCCCO2)C1)C(F)=CCCCCCCCCOC1CCCCO1` (mixture of isomers) [c74], the “Viability (MTT) % stimulated control” value in the data set with B16 melanocytes [1] (30 μM) came out at 78 % stimulated control; in the data set on B16 melanocytes [1] (100 μM), 81 % stimulated control. The “Normalized data inhibition (%)” value in the data set with B16 melanocytes [2] (30 μM) stood at 110%; in the data set on B16 melanocytes [2] (100 μM), 111%.
As to `O=C(NC1CC1NC(=O)C(F)=CCCCCCOC1CCCCO1)C(F)=CCCCCCOC1CCCCO1` (racemic) [c110], the “Viability (MTT) % stimulated control” value with B16 melanocytes [1] (30 μM) is on record as 83 % stimulated control; with B16 melanocytes [1] (100 μM), 0 % stimulated control. Moreover, the “Normalized data inhibition (%)” value with B16 melanocytes [2] (30 μM) is recorded as 104%; in the data set on B16 melanocytes [2] (100 μM), 120%.
Consider “(E)-14-tetrahydropyranyloxy-tetradec-2-enoic acid [Ref3, reference compound]”, for which the “Viability (MTT) % stimulated control” value in the data set on B16 melanocytes [1] (30 μM) is 92 % stimulated control. For the same molecule, the figures for the “Normalized data inhibition (%)” value in the data set on B16 melanocytes [2] (30 μM) and with B16 melanocytes [2] (100 μM) were 0% and 11%, respectively.
Regarding `O=C(NC1CCC(NC(=O)C(F)=CCCCCCCCOC2CCCCO2)C1)C(F)=CCCCCCCCOC1CCCCO1` (mixture of isomers) [c69], the “Viability (MTT) % stimulated control” value was 87 % stimulated control in the data set with B16 melanocytes [1] (30 μM) and 78 % stimulated control in the data set on B16 melanocytes [1] (100 μM). Further, the “Normalized data inhibition (%)” value in the data set with B16 melanocytes [2] (30 μM) is 116%; with B16 melanocytes [2] (100 μM) it was 112%.
Taken in the same sequence, the figures for `O=C(NC1CCC(NC(=O)C(F)=CCCCCCOC2CCCCO2)C1)C(F)=CCCCCCOC1CCCCO1` (stereo not shown) [c149] were 87 % stimulated control, 28 % stimulated control, 108% and 120%.
For `CCCCCC=CCC=CCCCCCCCC(=O)NC1CCC(NC(=O)CCCCCCCC=CCC=CCCCCC)C1` (stereo not shown) [c135], the “Normalized data inhibition (%)” value in the data set on B16 melanocytes [2] (30 μM) was 0%; in the data set on B16 melanocytes [2] (100 μM), 90%.
Take `O=C(NC1CCCC1NC(=O)C(F)=CCCCCCCCO)C(F)=CCCCCCCCO` (mixture of isomers) [c46]: the results for the “Viability (MTT) % stimulated control” value in the data set with B16 melanocytes [1] (30 μM) and in the data set with B16 melanocytes [1] (100 μM) were 77 % stimulated control and 68 % stimulated control, respectively. The “Normalized data inhibition (%)” value in the data set with B16 melanocytes [2] (30 μM) is given as 0%; in the data set on B16 melanocytes [2] (100 μM) it was 75%.
With `O=C(N[C@H]1CCC[C@H]1NC(=O)/C(F)=C\CCCCCCCCO)/C(F)=C\CCCCCCCCO` [c49], the “Viability (MTT) % stimulated control” value was found to be 83 % stimulated control with B16 melanocytes [1] (30 μM) and 0 % stimulated control with B16 melanocytes [1] (100 μM). Also, the figures for the “Normalized data inhibition (%)” value in the data set with B16 melanocytes [2] (30 μM) and in the data set on B16 melanocytes [2] (100 μM) were 83% and 118%, respectively.
In the same order, the values of `O=C(NC1CCC(NC(=O)C(F)=CCCCCCO)C1)C(F)=CCCCCCO` (racemic) [c115] are 94 % stimulated control, 97 % stimulated control, 0% and 95%.
As for `O=C(N[C@@H]1CC[C@H](NC(=O)/C(F)=C/CCCCCCCOC2CCCCO2)C1)/C(F)=C/CCCCCCCOC1CCCCO1` (stereo partly shown) [c68], the results for the “Viability (MTT) % stimulated control” value in the data set on B16 melanocytes [1] (30 μM) and with B16 melanocytes [1] (100 μM) were 64 % stimulated control and 50 % stimulated control, respectively. Moreover, the “Normalized data inhibition (%)” value is on record as 95% in the data set on B16 melanocytes [2] (30 μM) and 108% in the data set with B16 melanocytes [2] (100 μM).
For the molecule `CCCCCC=CCC=CCCCCCCCC(=O)NC1CC1NC(=O)CCCCCCCC=CCC=CCCCCC` (stereo not shown) [c122], the “Normalized data inhibition (%)” value was found to be 8% in the data set with B16 melanocytes [2] (30 μM) and 109% in the data set on B16 melanocytes [2] (100 μM).
